Source: ChEMBL document CHEMBL1147475, “2-Alkyl-4-arylimidazoles: structurally novel sodium channel modulators” (Bioorg Med Chem Lett, 2004)

Experiments:
[1] = target: Sodium channel alpha subunits; brain (Types I, II, III) (Rattus norvegicus, UniProt P04775+P04774+P08104); assay: Concentration required to inhibit [3H]BTX binding to Sodium channel of rat brain
SH-SY5Y = assay: Cytoprotection of SH-SY5Y cells against veratridine-induced cytotoxicity; format: functional, cell-based; details: Homo sapiens

| Structure (SMILES) | IC50 [1] [nM] | IC50 (SH-SY5Y) [nM] |
| --- | --- | --- |
| CCCCCCc1nc(-c2ccc(-c3ccccc3)cc2)c[nH]1 | 16 | 450 |
| c1ccc(-c2ccc(-c3c[nH]c(CCC4CCCCC4)n3)cc2)cc1 | 26 | 760 |
| c1ccc(-c2c[nH]c([C@H]3Cc4c([nH]c5ccccc45)[C@@H](c4ccccc4)N3)n2)cc1 | 1460 |  |
| Cc1nc(-c2ccc(-c3ccccc3)cc2)c[nH]1 | 1460 |  |
| c1ccc(-c2ccc(-c3c[nH]c(CCCC4CCCCC4)n3)cc2)cc1 | 19 | 1000 |
| CCCCCCc1nc(-c2ccc(CC(C)C)cc2)c[nH]1 | 28 | 380 |
| CCCCCC(CCCCC)c1nc(-c2ccc(-c3ccccc3)cc2)c[nH]1 | 8 | 810 |
| c1ccc(-c2ccc(-c3c[nH]c(CC4CCCCC4)n3)cc2)cc1 | 70 |  |
| Fc1ccc(-c2c[nH]c(CC3CCCCC3)n2)cc1 | 146 |  |
| NC(=O)N1c2ccccc2C=Cc2ccccc21 [CARBAMAZEPINE] | 167000 |  |
| Nc1nnc(-c2cccc(Cl)c2Cl)c(N)n1 [LAMOTRIGINE] | 31000 |  |
| CCN(CC)CC(=O)Nc1c(C)cccc1C [LIDOCAINE] | 56000 |  |

More lines, main results first:

| IC50 [1] [nM] | Structure (SMILES) | IC50 (SH-SY5Y) [nM] |
| --- | --- | --- |
| 25 | CCCCCC(CCCCC)c1nc(-c2ccc(F)cc2)c[nH]1 | 770 |
| 322 | CCCC(CCC)c1nc(-c2ccc(-c3ccc(Br)cc3)cc2)c[nH]1 |  |
| 100 | CCCC(CCC)c1nc(-c2ccc(-c3ccccc3)cc2)c[nH]1 |  |
| 518 | CCCC(CCC)c1nc(-c2ccc(F)cc2)c[nH]1 |  |
| 86 | CCCCCC(CCCCC)c1nc(-c2ccccc2)c[nH]1 |  |
| 30 | CCCC(CCC)c1nc(-c2ccc(C(C)(C)C)cc2)c[nH]1 | 430 |
